The source of these data is patent US12473304B2, “Heterocyclic PAD4 inhibitors” (BRISTOL-MYERS SQUIBB COMPANY, priority 2020, dated 2025).

Chain of human PAD4 (hPAD4) (Q9UM07 whole entry): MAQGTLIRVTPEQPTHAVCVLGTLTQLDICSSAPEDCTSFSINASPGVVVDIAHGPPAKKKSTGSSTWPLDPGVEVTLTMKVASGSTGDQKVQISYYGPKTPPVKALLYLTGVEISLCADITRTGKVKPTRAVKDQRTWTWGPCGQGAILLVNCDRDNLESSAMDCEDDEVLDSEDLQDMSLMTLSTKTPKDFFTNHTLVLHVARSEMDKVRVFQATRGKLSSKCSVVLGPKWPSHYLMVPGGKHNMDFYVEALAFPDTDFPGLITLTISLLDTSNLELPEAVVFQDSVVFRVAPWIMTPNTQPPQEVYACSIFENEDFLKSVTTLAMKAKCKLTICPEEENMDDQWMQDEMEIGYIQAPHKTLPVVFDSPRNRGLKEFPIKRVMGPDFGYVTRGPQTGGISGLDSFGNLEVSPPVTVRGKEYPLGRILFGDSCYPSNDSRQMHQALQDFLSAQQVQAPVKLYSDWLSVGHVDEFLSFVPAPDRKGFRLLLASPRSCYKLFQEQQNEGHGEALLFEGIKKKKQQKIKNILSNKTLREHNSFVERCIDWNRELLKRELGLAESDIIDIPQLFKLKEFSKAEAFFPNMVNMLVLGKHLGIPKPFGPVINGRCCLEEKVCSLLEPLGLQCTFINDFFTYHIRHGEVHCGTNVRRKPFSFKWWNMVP

The assay concerns the target human PAD4 (hPAD4) (Homo sapiens (Human), UniProt Q9UM07). Kind of assay: RFMS Human PAD4 Functional Assay 1. The format is biochemical. The note with it: RFMS assay 1; 5 nM hPAD4, 250 μM BAEE substrate, 50 μM calcium, 37° C. An outline of the steps:
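Recombinant hPAD4 (5 nM) was preincubated with compound (top 50 μM, 0.5% DMSO) for 30 min at 37 °C, then reacted with 250 μM BAEE for 90 min at 37 °C in pH 7.5 HEPES buffer with 50 μM calcium and 5 μM TPEN. Product was derivatized with phenyl glyoxal and quantified by RapidFire MS.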
In the case of `Cc1c(-c2cc3ccc(N4CCC(N5CCCC5=O)CC4)nc3n2CC2CC2)nn2cc(C(=O)N3CCC[C@@H](N)C3)cc(F)c12` [Example 273, 1-[1-(2-{6-[(3R)-3-Aminopiperidine-1-carbonyl]-4-fluoro-3-methylpyrazolo[1,5-a]pyridin-2-yl}-1-(cyclopropylmethyl)-1H-pyrrolo[2,3-b]pyridin-6-yl)piperidin-4-yl]pyrrolidin-2-one], the IC50 is 2.42 µM. As for `Cc1c(-c2cc3ccc(OC[C@@H]4CCC(=O)N4)nc3n2CC2CC2)nn2cc(C(=O)N3CC4CCC3[C@@H]4N)cc(F)c12` (stereo partly drawn) [Example 274, (5S)-5-{[(2-{6-[(7R)-7-Amino-2-azabicyclo[2.2.1]heptane-2-carbonyl]-4-fluoro-3-methylpyrazolo[1,5-a]pyridin-2-yl}-1-(cyclopropylmethyl)-1H-pyrrolo[2,3-b]pyridin-6-yl)oxy]methyl}pyrrolidin-2-one], the figure is 0.27 µM; as for `COC1CCN(c2ccc3cc(-c4nn5cc(C(=O)N6CCC[C@@H](N)C6)cc(Cl)c5c4C)n(CC4CC4)c3n2)CC1` [Example 276, (3R)-1-{4-Chloro-2-[1-(cyclopropylmethyl)-6-(4-methoxypiperidin-1-yl)-1H-pyrrolo[2,3-b]pyridin-2-yl]-3-methylpyrazolo[1,5-a]pyridine-6-carbonyl}piperidin-3-amine], 2.77 µM; as for `Cc1cc(C(N)=O)c(F)cc1-c1ccc2cc(-c3nn4cc(C(=O)N5CCC[C@@H](N)C5)cc(F)c4c3C)n(CC3CC3)c2n1` [Example 277, 4-(2-{6-[(3R)-3-Aminopiperidine-1-carbonyl]-4-fluoro-3-methylpyrazolo[1,5-a]pyridin-2-yl}-1-(cyclopropylmethyl)-1H-pyrrolo[2,3-b]pyridin-6-yl)-2-fluoro-5-methylbenzamide], 0.22 µM. With `Cc1c(-c2cc3ccc(-c4cccc(O)c4Cl)nc3n2CC2CC2)nn2cc(C(=O)N3CCC[C@@H](N)C3)cc(F)c12` [Example 278, 3-(2-{6-[(3R)-3-Aminopiperidine-1-carbonyl]-4-fluoro-3-methylpyrazolo[1,5-a]pyridin-2-yl}-1-(cyclopropylmethyl)-1H-pyrrolo[2,3-b]pyridin-6-yl)-2-chlorophenol] the figure was 0.39 µM. Regarding `Cc1c(-c2cc3ccc(-c4ccc(C(N)=O)c(F)c4)nc3n2CC2CC2)nn2cc(C(=O)N3CCC[C@@H](N)C3)cc(F)c12` [Example 279, 4-(2-{6-[(3R)-3-Aminopiperidine-1-carbonyl]-4-fluoro-3-methylpyrazolo[1,5-a]pyridin-2-yl}-1-(cyclopropylmethyl)-1H-pyrrolo[2,3-b]pyridin-6-yl)-2-fluorobenzamide], the IC50 came to 0.2 µM. For the compound `Cc1c(-c2cc3ccc(-c4ccc(N5CCNC5=O)cc4)nc3n2CC2CC2)nn2cc(C(=O)N3CCC[C@@H](N)C3)cc(F)c12` [Example 280, 1-[4-(2-{6-[(3R)-3-Aminopiperidine-1-carbonyl]-4-fluoro-3-methylpyrazolo[1,5-a]pyridin-2-yl}-1-(cyclopropylmethyl)-1H-pyrrolo[2,3-b]pyridin-6-yl)phenyl]imidazolidin-2-one], the IC50 was found to be 1.09 µM.

Turning to `Cc1c(-c2cc3ccc(-c4ccccc4N4CCNC4=O)nc3n2CC2CC2)nn2cc(C(=O)N3CCC[C@@H](N)C3)cc(F)c12` [Example 281, 1-[2-(2-{6-[(3R)-3-Aminopiperidine-1-carbonyl]-4-fluoro-3-methylpyrazolo[1,5-a]pyridin-2-yl}-1-(cyclopropylmethyl)-1H-pyrrolo[2,3-b]pyridin-6-yl)phenyl]imidazolidin-2-one], the IC50 is 0.14 µM.

As for `Cc1c(O)cccc1-c1ccc2cc(-c3nn4cc(C(=O)N5CCC[C@@H](N)C5)cc(F)c4c3C)n(CC3CC3)c2n1` [Example 282, 3-(2-{6-[(3R)-3-Aminopiperidine-1-carbonyl]-4-fluoro-3-methylpyrazolo[1,5-a]pyridin-2-yl}-1-(cyclopropylmethyl)-1H-pyrrolo[2,3-b]pyridin-6-yl)-2-methylphenol], the IC50 turned out to be 0.17 µM. For the compound `Cc1c(-c2cc3ccc(-c4cccc(O)c4F)nc3n2CC2CC2)nn2cc(C(=O)N3CCC[C@@H](N)C3)cc(F)c12` [Example 283, 3-(2-{6-[(3R)-3-Aminopiperidine-1-carbonyl]-4-fluoro-3-methylpyrazolo[1,5-a]pyridin-2-yl}-1-(cyclopropylmethyl)-1H-pyrrolo[2,3-b]pyridin-6-yl)-2-fluorophenol], the IC50 came out at 0.33 µM.

Consider `Cc1c(-c2cc3ccc(-c4ccc5c(c4)CNC5=O)nc3n2CC2CC2)nn2cc(C(=O)N3CCC[C@@H](N)C3)cc(F)c12` [Example 284, 5-(2-{6-[(3R)-3-Aminopiperidine-1-carbonyl]-4-fluoro-3-methylpyrazolo[1,5-a]pyridin-2-yl}-1-(cyclopropylmethyl)-1H-pyrrolo[2,3-b]pyridin-6-yl)-2,3-dihydro-1H-isoindol-1-one], for which the concentration for half-maximal inhibition (IC50) worked out at 1.86 µM. `Cc1c(-c2cc3ccc(-c4ccc5c(c4)C(=O)NC5)nc3n2CC2CC2)nn2cc(C(=O)N3CCC[C@@H](N)C3)cc(F)c12` [Example 285, 6-(2-{6-[(3R)-3-Aminopiperidine-1-carbonyl]-4-fluoro-3-methylpyrazolo[1,5-a]pyridin-2-yl}-1-(cyclopropylmethyl)-1H-pyrrolo[2,3-b]pyridin-6-yl)-2,3-dihydro-1H-isoindol-1-one]: the IC50 came to 1.27 µM. As for `Cc1cc(-c2ccc3cc(-c4nn5cc(C(=O)N6CCC[C@@H](N)C6)cc(F)c5c4C)n(CC4CC4)c3n2)ccc1C(N)=O` [Example 286, 4-(2-{6-[(3R)-3-Aminopiperidine-1-carbonyl]-4-fluoro-3-methylpyrazolo[1,5-a]pyridin-2-yl}-1-(cyclopropylmethyl)-1H-pyrrolo[2,3-b]pyridin-6-yl)-2-methylbenzamide], the figure is 0.54 µM. With `CNC(=O)c1ccc(-c2ccc3cc(-c4nn5cc(C(=O)N6CCC[C@@H](N)C6)cc(F)c5c4C)n(CC4CC4)c3n2)cn1` [Example 287, 5-(2-{6-[(3R)-3-Aminopiperidine-1-carbonyl]-4-fluoro-3-methylpyrazolo[1,5-a]pyridin-2-yl}-1-(cyclopropylmethyl)-1H-pyrrolo[2,3-b]pyridin-6-yl)-N-methylpyridine-2-carboxamide] the figure was 1.28 µM; with `Cc1c(-c2cc3ccc(-c4ccn5c(C)nnc5c4)nc3n2CC2CC2)nn2cc(C(=O)N3CCC[C@@H](N)C3)cc(F)c12` [Example 288, (3R)-1-{2-[1-(Cyclopropylmethyl)-6-{3-methyl-[1,2,4]triazolo[4,3-a]pyridin-7-yl}-1H-pyrrolo[2,3-b]pyridin-2-yl]-4-fluoro-3-methylpyrazolo[1,5-a]pyridine-6-carbonyl}piperidin-3-amine], 0.08 µM; with `Cc1c(-c2cc3ccc(Cl)nc3n2CC2CC2)nn2cc(C(=O)N3C[C@H](N)C[C@@H](F)C3)cc(Cl)c12` [Example 289, (3R,5R)-1-{4-Chloro-2-[6-chloro-1-(cyclopropylmethyl)-1H-pyrrolo[2,3-b]pyridin-2-yl]-3-methylpyrazolo[1,5-a]pyridine-6-carbonyl}-5-fluoropiperidin-3-amine], 3.58 µM. For `Cc1c(-c2cc3ccc(-c4ccc5[nH]ncc5c4)nc3n2CC2CC2)nn2cc(C(=O)N3C[C@H](N)C[C@@H](F)C3)cc(Cl)c12` [Example 290, (3R,5R)-1-{4-Chloro-2-[1-(cyclopropylmethyl)-6-(1H-indazol-5-yl)-1H-pyrrolo[2,3-b]pyridin-2-yl]-3-methylpyrazolo[1,5-a]pyridine-6-carbonyl}-5-fluoropiperidin-3-amine], the IC50 came to 2.72 µM.
